Laboratory results taken from US20230203098A1, “HUMAN TRANSFERRIN RECEPTOR BINDING PEPTIDE” (priority 2020, published 2023).
pKd: −log10 of the molar value. Read-outs that look alike come from different tables or passages of the source. One block for each compound: values may come before it. Where a SMILES comes first, the peptide text is derived from it. Bridges are numbered along the chain shown (N, C = ends). [ ]: non-standard residue; d: D form. The star is where a group is joined. X2 = O=C(O)c1cc(C(=O)*)ccc1-c1c2ccc(=O)cc-2oc2cc(O)ccc12; PEG12 = NCCOCCOCCOCCOCCOCCOCCOCCOCCOCCOCCOCCOCCC(=O)O; NH(CH2CH2O)8Me = COCCOCCOCCOCCOCCOCCOCCOCCN*; NMePhe(3-Cl) = CN[C@@H](Cc1cccc(Cl)c1)C(=O)O; NMeW = CN[C@@H](Cc1c[nH]c2ccccc12)C(=O)O; NMeY = CN[C@@H](Cc1ccc(O)cc1)C(=O)O; NMeH = CN[C@@H](Cc1c[nH]cn1)C(=O)O

Molecular target: transferrin receptor (hTfR) (Homo sapiens, UniProt P02786)
Sequence (P02786 whole entry): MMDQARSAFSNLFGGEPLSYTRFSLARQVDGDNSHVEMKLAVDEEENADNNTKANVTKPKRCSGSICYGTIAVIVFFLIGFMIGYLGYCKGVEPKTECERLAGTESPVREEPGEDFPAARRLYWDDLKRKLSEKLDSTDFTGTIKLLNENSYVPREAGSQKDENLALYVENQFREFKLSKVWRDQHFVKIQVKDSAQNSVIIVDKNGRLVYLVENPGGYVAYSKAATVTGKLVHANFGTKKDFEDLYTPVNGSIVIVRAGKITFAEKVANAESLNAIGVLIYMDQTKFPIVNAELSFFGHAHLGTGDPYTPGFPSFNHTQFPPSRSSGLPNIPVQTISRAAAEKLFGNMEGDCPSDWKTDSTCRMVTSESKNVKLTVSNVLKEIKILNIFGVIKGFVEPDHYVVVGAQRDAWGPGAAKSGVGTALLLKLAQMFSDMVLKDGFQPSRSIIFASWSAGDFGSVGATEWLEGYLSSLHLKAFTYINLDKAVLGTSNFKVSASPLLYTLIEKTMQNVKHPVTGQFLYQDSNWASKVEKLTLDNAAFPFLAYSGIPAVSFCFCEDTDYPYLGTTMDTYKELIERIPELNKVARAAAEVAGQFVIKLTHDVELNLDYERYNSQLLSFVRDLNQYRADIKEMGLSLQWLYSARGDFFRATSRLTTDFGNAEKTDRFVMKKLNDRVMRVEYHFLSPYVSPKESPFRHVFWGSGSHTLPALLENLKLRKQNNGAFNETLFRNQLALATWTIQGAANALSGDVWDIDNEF
Assay: Intermolecular interaction evaluation test between transferrin receptor (hTfR) and peptide by surface plasmon resonance (SPR)
Type: binding
How it was run: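 Receptor was Ni-captured and EDC/NHS-fixed on an NTA chip; running buffer HEPES pH 8.0 with NaCl, Tween 20, BSA and 1.0% DMSO.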

[1] = surface plasmon resonance, peptide vs hTfR, read-out: KD value, hTfR binding by SPR (class symbol)
[2] = SPR, peptides, linker-added peptides and FITC conjugates, Patent ID 203-230, read-out: KD

SMILES: CC[C@H](C)[C@@H]1NC(=O)[C@H](Cc2ccc(OC)cc2)NC(=O)[C@H](Cc2ccc(O)cc2)NC(=O)[C@H](CC(N)=O)NC(=O)[C@H](Cc2c[nH]c3ccccc23)N(C)C(=O)[C@H](C(C)C)NC(=O)[C@H](Cc2cccc(Cl)c2)N(C)C(=O)[C@H](C(C)C)NC(=O)[C@H](C)NC(=O)CSC[C@@H](C(=O)NCC(=O)NCC(=O)NCC(=O)NCC(=O)N[C@@H](CO)C(=O)N[C@@H](CO)C(=O)N[C@@H](CS)C(N)=O)NC(=O)[C@H](Cc2ccc(O)cc2)N(C)C(=O)[C@H](Cc2ccccc2)NC(=O)[C@@H](CCCNC(=N)N)NC(=O)[C@H](CCC(=O)O)NC(=O)[C@H]([C@@H](C)CC)NC1=O [compound 348]
pKd [1]: 6.00 to 7.00

SMILES: CC[C@H](C)[C@@H]1NC(=O)[C@H](Cc2ccc(OC)cc2)NC(=O)[C@H](Cc2ccc(O)cc2)NC(=O)[C@H](CC(N)=O)NC(=O)[C@H](Cc2c[nH]c3ccccc23)N(C)C(=O)[C@H](C(C)C)NC(=O)[C@H](Cc2cccc(Cl)c2)N(C)C(=O)[C@H](C(C)C)NC(=O)[C@H](C)NC(=O)CSC[C@@H](C(N)=O)NC(=O)[C@H](Cc2ccc(O)cc2)N(C)C(=O)[C@H](Cc2ccccc2)NC(=O)[C@@H](CCCNC(=N)N)NC(=O)[C@H](CCCNC(=N)N)NC(=O)[C@H](CCC(=O)NCCOCCOCCOCCOCCOCCOCCOCCOC)NC1=O [compound 345] ({CH2CO}-AV[NMePhe(3-Cl)]V[NMeW]NYY(Me)IE(NH(CH2CH2O)8Me)R[dR]F[NMeY]C-NH2; thioether N-15)
pKd [1]: 7.00 to 9.00

SMILES: CC[C@H](C)[C@@H]1NC(=O)[C@H](Cc2ccc(OC)cc2)NC(=O)[C@H](Cc2ccc(O)cc2)NC(=O)[C@H](CC(N)=O)NC(=O)[C@H](Cc2c[nH]c3ccccc23)N(C)C(=O)[C@H](C(C)C)NC(=O)[C@H](Cc2cccc(Cl)c2)N(C)C(=O)[C@H](C(C)C)NC(=O)[C@H](C)NC(=O)CSC[C@@H](C(=O)NCC(=O)NCC(=O)NCC(=O)NCC(=O)N[C@@H](CO)C(=O)N[C@@H](CO)C(=O)N[C@@H](CS)C(N)=O)NC(=O)[C@H](Cc2ccc(O)cc2)N(C)C(=O)[C@H](Cc2ccccc2)NC(=O)[C@@H](CCCNC(=N)N)NC(=O)[C@H](CCCCCN)NC(=O)[C@H]([C@@H](C)CC)NC1=O [compound 370]
pKd: 7.00 to 9.00

SMILES: CC[C@H](C)[C@@H]1NC(=O)[C@H](CCCNC(=N)N)NC(=O)[C@H](CC(N)=O)NC(=O)[C@H](C)NC(=O)CSC[C@@H](C(=O)NCCOCCOCCOCCOCCOCCOCCOCCOCCOCCOCCOCCOCCC(=O)N[C@@H](CCCCNC(=O)c2ccc(-c3c4ccc(=O)cc-4oc4cc(O)ccc34)c(C(=O)O)c2)C(N)=O)NC(=O)[C@H](Cc2c[nH]cn2)N(C)C(=O)[C@H](CCCNC(=N)N)NC(=O)[C@@H]2CCCN2C(=O)[C@H]([C@@H](C)CC)NC(=O)[C@H]([C@@H](C)CC)NC(=O)[C@H](Cc2ccc(O)cc2)NC(=O)[C@H](Cc2ccc(O)cc2)NC(=O)[C@H](CC(N)=O)NC(=O)[C@H](Cc2c[nH]c3ccccc23)NC(=O)[C@H](C(C)C)NC(=O)[C@H](Cc2ccccc2)NC(=O)[C@H](C(C)C)NC1=O [compound 154] ({CH2CO}-ANRIVFVWNYYIIPR[NMeH]C[PEG12]K(X2)-NH2; thioether N-17)
pKd (SPR, linker and payload (FITC, VivoTag) conjugates, read-out: KD): 7.00 to 9.00

SMILES: CC[C@H](C)[C@@H]1NC(=O)[C@H](Cc2ccccc2)NC(=O)[C@H](Cc2ccc(O)cc2)NC(=O)[C@H](CC(N)=O)NC(=O)[C@H](Cc2c[nH]c3ccccc23)NC(=O)[C@H](C(C)C)NC(=O)[C@H](Cc2c[nH]c3ccccc23)NC(=O)[C@H](C(C)C)NC(=O)[C@H](C)NC(=O)CSC[C@@H](C(=O)NCCOCCOCCOCCOCCOCCOCCOCCOCCOCCOCCOCCOCCC(=O)N[C@@H](CCCCNC(=O)c2ccc(-c3c4ccc(=O)cc-4oc4cc(O)ccc34)c(C(=O)O)c2)C(N)=O)NC(=O)[C@H](Cc2c[nH]cn2)NC(=O)[C@H](CCCNC(=N)N)NC(=O)[C@@H]2CCCN2C(=O)[C@H]([C@@H](C)CC)NC1=O [compound 208] ({CH2CO}-AVWVWNYFIIPRHC[PEG12]K(X2)-NH2; thioether N-14)
pKd [2]: 7.00 to 9.00

SMILES: CC[C@H](C)[C@@H]1NC(=O)[C@H](Cc2ccc(OC)cc2)NC(=O)[C@H](Cc2ccc(O)cc2)NC(=O)[C@H](CC(N)=O)NC(=O)[C@H](Cc2c[nH]c3ccccc23)N(C)C(=O)[C@H](C(C)C)NC(=O)[C@H](Cc2cccc(Cl)c2)N(C)C(=O)[C@H](CCC(=O)O)NC(=O)[C@H](C)NC(=O)CSC[C@@H](C(=O)NCC(=O)NCC(=O)NCC(=O)NCC(=O)N[C@@H](CO)C(=O)N[C@@H](CO)C(=O)N[C@@H](CS)C(N)=O)NC(=O)[C@H](Cc2ccc(O)cc2)N(C)C(=O)[C@H](Cc2ccccc2)NC(=O)[C@@H](CCCNC(=N)N)NC(=O)[C@H](CCCNC(=N)N)NC(=O)[C@H](CCC(=O)O)NC1=O [compound 223]
pKd [2]: 7.00 to 9.00

SMILES: CC[C@H](C)[C@@H]1NC(=O)[C@H](Cc2ccc(OC)cc2)NC(=O)[C@H](Cc2ccc(O)cc2)NC(=O)[C@H](CC(N)=O)NC(=O)[C@H](Cc2c[nH]c3ccccc23)N(C)C(=O)[C@H](C(C)C)NC(=O)[C@H](Cc2cccc(Cl)c2)N(C)C(=O)[C@H](CCC(=O)O)NC(=O)[C@H](C)NC(=O)CSC[C@@H](C(=O)N[C@H](CCC(=O)O)C(=O)NCC(=O)NCC(=O)NCC(=O)N[C@@H](CO)C(=O)N[C@@H](CO)C(=O)N[C@@H](CS)C(N)=O)NC(=O)[C@H](Cc2ccc(O)cc2)N(C)C(=O)[C@H](Cc2ccccc2)NC(=O)[C@@H](CCCNC(=N)N)NC(=O)[C@H](CCCCN)NC(=O)[C@H]([C@@H](C)CC)NC1=O [compound 230] ({CH2CO}-AE[NMePhe(3-Cl)]V[NMeW]NYY(Me)IIK[dR]F[NMeY]C[dE]GGGSSC-NH2; thioether N-15)
pKd [2]: 7.00 to 9.00

SMILES: CC[C@H](C)[C@@H]1NC(=O)[C@H](Cc2ccc(OCCN)cc2)NC(=O)[C@H](Cc2ccc(O)cc2)NC(=O)[C@H](CC(N)=O)NC(=O)[C@H](Cc2c[nH]c3ccccc23)NC(=O)[C@H](C(C)C)NC(=O)[C@H](Cc2ccccc2)N(C)C(=O)[C@H](C(C)C)NC(=O)[C@H](C)NC(=O)CSC[C@@H](C(N)=O)NC(=O)[C@H](Cc2ccc(O)cc2)N(C)C(=O)[C@H](Cc2ccccc2)NC(=O)[C@H](CCCNC(=N)N)NC(=O)C(C)(C)NC(=O)[C@H]([C@@H](C)CC)NC1=O [compound 524]
pKd (SPR, hTfR, class symbols A-D, read-out: KD (column without head, continuation of the table series)): 6.00 to 7.00

SMILES: CC[C@H](C)[C@@H]1NC(=O)[C@H](Cc2ccc(OC)cc2)NC(=O)[C@H](Cc2ccc(O)cc2)NC(=O)[C@H](CC(N)=O)NC(=O)[C@H](Cc2c[nH]c3ccccc23)N(C)C(=O)[C@H](C(C)C)NC(=O)[C@H](Cc2cccc(Cl)c2)N(C)C(=O)[C@H](CCC(=O)O)NC(=O)[C@H](C)NC(=O)CSC[C@@H](C(N)=O)NC(=O)[C@H](CCC(=O)O)NC(=O)[C@H](CCCNC(=N)N)NC(=O)[C@@H]2CCCN2C(=O)[C@H](C(C)C)NC1=O [compound 206] ({CH2CO}-AE[NMePhe(3-Cl)]V[NMeW]NYY(Me)IVPREC-NH2; thioether N-14)
pKd [2]: 7.00 to 9.00

Further lines, results first:

pKd (hTfR binding by SPR, hTfR No. 894 variant peptides, linker-added peptides and payload conjugates (Table 2), read-out: KD value obtained from the SPR measurement): 7.00 to 9.00
SMILES: CC[C@H](C)[C@@H]1NC(=O)[C@H](Cc2ccc(O)cc2)NC(=O)[C@H](Cc2ccc(O)cc2)NC(=O)[C@H](CC(N)=O)NC(=O)[C@H](Cc2c[nH]c3ccccc23)NC(=O)[C@H](C(C)C)NC(=O)[C@H](Cc2ccccc2)N(C)C(=O)[C@H](C(C)C)NC(=O)[C@H](C)NC(=O)CSC[C@@H](C(=O)N[C@@H](CCCCNC(=O)C2CCC(CN3C(=O)C=CC3=O)CC2)C(N)=O)NC(=O)[C@H](Cc2ccc(O)cc2)N(C)C(=O)[C@H](Cc2ccc(O)cc2)NC(=O)[C@H](CCCNC(=N)N)NC(=O)[C@H](CCCNC(=N)N)NC(=O)[C@H]([C@@H](C)CC)NC1=O (stereo partly shown) [compound 186]

pKd (binding to hTfR by SPR, Table 2 peptides, read-out: KD value (SPR) class): > 9.00
SMILES: CC[C@H](C)[C@@H]1NC(=O)[C@H](Cc2ccc(O)cc2)NC(=O)[C@H](Cc2ccc(O)cc2)NC(=O)[C@H](CC(N)=O)NC(=O)[C@H](Cc2c[nH]c3ccccc23)NC(=O)[C@H](C(C)C)NC(=O)[C@H](Cc2ccccc2)NC(=O)[C@H](C(C)C)NC(=O)[C@H](C)NC(=O)CSC[C@@H](C(N)=O)NC(=O)[C@H](Cc2ccc(O)cc2)N(C)C(=O)[C@H](Cc2ccc(O)cc2)NC(=O)[C@H](CCCNC(=N)N)NC(=O)[C@H](CCCNC(=N)N)NC(=O)[C@H](CCCCN)NC1=O [compound 249] ({CH2CO}-AVFVWNYYIKRRY[NMeY]C-NH2; thioether N-15)

pKd [2]: 7.00 to 9.00
SMILES: CC[C@H](C)[C@@H]1NC(=O)[C@H](Cc2ccc(O)cc2)NC(=O)[C@H](Cc2ccc(O)cc2)NC(=O)[C@H](CC(N)=O)NC(=O)[C@H](Cc2c[nH]c3ccccc23)NC(=O)[C@H](C(C)C)NC(=O)[C@H](Cc2ccccc2)NC(=O)[C@H](CCC(=O)O)NC(=O)[C@H](C)NC(=O)CSC[C@@H](C(N)=O)NC(=O)[C@H](Cc2ccc(O)cc2)N(C)C(=O)[C@H](Cc2ccc(O)cc2)NC(=O)[C@H](CCCNC(=N)N)NC(=O)[C@H](CCCNC(=N)N)NC(=O)[C@H]([C@@H](C)CC)NC1=O [compound 219]

pKd (surface plasmon resonance, peptide vs hTfR, read-out: KD value for hTfR by SPR (class symbol)): 7.00 to 9.00
SMILES: CC[C@H](C)[C@@H]1NC(=O)[C@H](Cc2ccc(O)cc2)NC(=O)[C@H](Cc2ccc(O)cc2)NC(=O)[C@H](CC(N)=O)NC(=O)[C@H](Cc2c[nH]c3ccccc23)NC(=O)[C@H](C(C)C)NC(=O)[C@H](Cc2ccccc2)N(C)C(=O)[C@H](C(C)C)NC(=O)[C@H](C)NC(=O)CSC[C@@H](C(=O)NCC(=O)N[C@H](CCC(=O)O)C(=O)N[C@H](CCC(=O)O)C(=O)N[C@H](CCC(=O)O)C(=O)NCC(=O)N[C@H](CCCCN)C(N)=O)NC(=O)[C@H](Cc2ccc(O)cc2)N(C)C(=O)[C@H](Cc2ccc(O)cc2)NC(=O)[C@H](CCCNC(=N)N)NC(=O)[C@H](CCCNC(=N)N)NC(=O)[C@H]([C@@H](C)CC)NC1=O [compound 444]
